In patent US11986512B2, “Compositions and methods for cancer therapy” (Thetis Pharmaceuticals LLC, priority 2021, dated 2024):

Tests used:
Format in all cases: in vivo, C57BL/6J male mice
[1] = system: Panc2-H7 cells; test: Panc2-H7 model, daily (QD) versus weekly (Q7D) dosing; conditions: SC
Method: (§1) A representative compound of Formula IV, RvE1 magnesium dilysinate, was tested for efficacy in several mouse models of cancer, including the Panc2-H7 model of pancreatic cancer, the Lewis lung carcinoma (LLC) model, the MC38 model of colorectal cancer, and the B16F10 model of melanoma. These models are well established, highly tumorigenic syngeneic models in which murine cancer cell lines are injected subcutaneously (SC) into the dorsum of C57BL/6J mice. If left untreated, these tumors grow rapidly and lead to death or euthanasia, per protocol. As detailed below in Examples 1-9 and the accompanying figures, bis RvE1 Mg-di-lysinate (Compound 1) was unexpectedly effective as an anti-cancer agent in each of these model systems when administered in a less than daily (LTD) dosing regimen. […] Without being bound by any theory, the surprising efficacy of LTD dosing of resolvins in the cancer model systems described here may be the result of durable effects on the tumor microenvironment including changes in immune cell phenotype, vascularization, stromal phenotype, and antigen presentation, as well as durable effects on the T-cell compartment such as T-cell priming and increased tumor-infiltrating lymphocytes.
Based on the previous findings in the MC38 colorectal cancer model with less than daily (LTD) dosing, a study in the Panc2-H7 model was conducted to assess the efficacy of LTD dosing of bis RvE1 Mg-di-lysinate in a different tumor model. A total of forty (40) C57BL/6J male mice were injected subcutaneously with 1×10e6 living Panc2-H7 cells. Once tumors reached 160-320 mm^3 in size, the mice were randomized (n=8 per group) to treatment with vehicle or SC injection with bis RvE1 Mg-di-lysinate at 30 ug/kg and 300 ug/kg (QD, Q7D).

[2] = system: LLC cells; test: Metastatic LLC resection model, perioperative (neo-adjuvant) treatment; conditions: 300 ug/kg, SC, Q6D, first dose 2 hours prior to surgery
Method: To investigate the efficacy of LTD dosing of bis RvE1 Mg-di-lysinate as neo-adjuvant therapy, a study was conducted in the metastatic LLC resection model with treatment initiated in the perioperative window. A total of fifteen (15) C57BL/6J male mice were injected subcutaneously with 1×10e6 living LLC cells. Once tumors reached approximately 1200-1500 mme3 in size, the mice were randomized (n=4-8 per group) to treatment with vehicle (SC, Q6D), bis RvE1 Mg-di-lysinate (300 ug/kg, SC, Q6D), or cisplatin (5 mg/kg, i.p, Q6D), followed by surgical resection of the tumors. The mice in the vehicle and cisplatin groups received an initial dose twenty-four (24) hours prior to surgery, and the mice treated with bis RvE1 Mg-di-lysinate received an initial dose two (2) hours prior to surgery. All mice were sacrificed on day 19 following the death of three mice in the vehicle control group on day 18.

[3] = system: MC-38 cells; test: MC38 model of colorectal cancer, subcutaneous tumors; conditions: 300 ug/kg, SC, single agent, P<0.05 vs placebo
Method: as §1, with “lymphocytes. […]” for “lymphocytes.”

[4] = system: Panc2 cells; test: Panc2-H7 model with or without anti-CTLA4
Method: To further corroborate the findings with weekly dosing of bis RvE1 Mg-di-lysinate and its efficacy in combination with immune checkpoint inhibitors (ICI), another study was conducted in the Panc2-H7 model with a different ICI. A total of twenty-four (24) C57BL/6J male mice were injected subcutaneously with 1×10e6 living Panc2 cells. Once tumors reached 200 mm^3 in size based on mean tumor volume per cohort, the mice were randomized (n=8 per group) to treatment with vehicle, bis RvE1 Mg-di-lysinate (300 ug/kg, SC, Q7D) and bis RvE1 Mg-di-lysinate+anti-CTLA-4 (4 mg/kg, i.p, first dose; 2 mg/kg i.p, Q3D following the first dose).

[5] = system: Panc2-H7 model; test: Panc2-H7 model with or without CD8 neutralizing antibody
Method: Based on the findings with bis RvE1 Mg-di-lysinate administered in combination with anti-PD1 in two different tumor models (i.e., Panc2-H7 and LLC), daily (QD) and weekly (Q7D) dosing of bis RvE1 Mg-di-lysinate was investigated in the Panc2-H7 model, with and without an antibody that depletes CD8+ T-cells, which play a major role in the antitumor immune response of immune checkpoint inhibitors. A total of thirty (30) C57BL/6J male mice were injected subcutaneously with 1×10e6 living […]. Once tumors reached 220-240 mm^3 in size based on mean tumor volume per cohort, the mice were randomized (n=6 per group) to treatment with vehicle, bis RvE1 Mg-di-lysinate (300 ug/kg, SC, QD or Q7D), with or without CD8 neutralizing antibody (200 ug IP Q3D). All mice were sacrificed on day 20 when the average tumor size of the placebo group exceeded 2,000 mm^3.

`CC[C@@H](O)/C=C/C=C\C[C@@H](O)/C=C/C=C/C=C\[C@@H](O)CCCC(=O)O` [bis RvE1 Mg-di-lysinate] was tested, and the “tumor volume (Day 20 vs Day 0)” value ([1]; 30 ug/kg, Q7D) was “inhibition relative to placebo control”, the “tumor volume (Day 20 vs Day 0)” value ([1]; 30 ug/kg, QD) was “inhibition relative to placebo control” and the “tumor volume (Day 20 vs Day 0)” value ([1]; 300 ug/kg, Q7D, P<0.05 vs placebo control) was “greatest inhibition”. The “tumor volume (Day 20 vs Day 0)” value ([1]; 300 ug/kg, QD) was “inhibition relative to placebo control”, the “number of lung metastases” value ([2]; compared to vehicle control and cisplatin, p<0.05) was “significantly reduced the number of lung metastases” and the “number of mice with metastasis in the axillary or inguinal lymph nodes” value ([2]; compared to vehicle or cisplatin, p<0.01) was “significantly reduced the number of mice with metastasis in the axillary or inguinal lymph nodes”. For the same compound, the “tumor volume (Day 15 vs Day 0)” value ([3]; Q3D) was “effective as a single agent”, the “tumor volume (Day 15 vs Day 0)” value ([3]; QD) was “effective as a single agent” and the “tumor volume over time” value ([4]; bis RvE1 Mg-di-lysinate 300 ug/kg SC Q7D + anti-CTLA-4 (4 mg/kg i.p first dose, 2 mg/kg i.p Q3D), p<0.001) was “significant inhibition related to both placebo and bis RvE1 Mg-di-lysinate alone”. For the same compound, the “tumor volume over time” value ([4]; monotherapy, 300 ug/kg, SC, Q7D) was “significant inhibition as monotherapy compared to placebo”, the “efficacy of weekly (Q7D) relative to daily (QD) dosing” value ([5]; 300 ug/kg SC, mice not receiving the neutralizing antibody) was “comparable and possibly superior efficacy relative to daily (QD) dosing” and the “tumor volume over time” value ([5]; 300 ug/kg, SC, Q7D, without CD8 neutralizing antibody, p<0.01 vs placebo and vs same regimen + CD8 depletion) was “significant inhibition compared to placebo control”.
